Experimental data published in PubChem BioAssay AID504672 (Sanford-Burnham Center for Chemical Genomics, 2011).
The source made the active and inactive calls. Cut-off read from the data, not from the text of the source: active = IC50 below about 71 µM; inactive = the rest.

What follows are molecules tested on S. cerevisiae tim10 strain, luminescence counterscreen (assay: signal inhibition in TIM10 yeast counter-screen, dose response, counter-screen for tim23-1 inhibitor project, luminescence, S. cerevisiae, uHTS hits (AID 504672);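 note: yeast grew roughly 22 hours at 25 °C before the luminescence read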).

SMILES	IC50
COc1cc(NC(=O)c2cccs2)ccc1NC(=O)c1ccccc1Cl	16.2 µM
O=C(NCCCc1ccccc1)Nc1cccc(Cl)c1	5.13 µM
O=C(Nc1ccc(-c2cn3ccccc3n2)cc1)c1ccco1	17.5 µM
CC(C)CCN1C(=O)c2cccc3c(N)ccc(c23)C1=O	10.6 µM
COc1ccc(/C=C/C(=O)Nc2ccc3c(c2)CCC3)cc1OC	64.1 µM
Brc1ccc(-n2cnc(-c3ccccc3)c2)cc1	17.4 µM
CCOC(=O)c1cccc(OC(=O)CCNC(=O)c2ccc(Cl)cc2)c1	26.9 µM
O=c1c2ccccc2nc(-c2ccc([N+](=O)[O-])cc2)n1O	4.86 µM
O=C(Nc1ccccc1)C1C(c2ccccc2)C1(Cl)Cl (stereo not given)	20.6 µM
CCOC(=O)Nc1ccc2c(c1)Nc1ccccc1S2	12.7 µM
CC(C)(C)c1ccc(Oc2ccc(N)cc2)cc1	13.7 µM
NNC(=O)c1nc(-c2ccccc2)cc(-c2ccccc2)n1	12.5 µM
CC(C)Oc1cc(O)c2c(=O)c(-c3ccc(O)cc3)coc2c1	10.1 µM
CCOC(=O)c1sc(=NC(=O)c2ccco2)n(C)c1C	46.5 µM
Cc1ccccc1OCCCSc1nc2ccccc2[nH]1	6.45 µM
Cn1c(=O)c(C(=O)Nc2ncccn2)c(O)c2ccccc21	4.78 µM
O=C1/C(=C/c2ccncc2)SC(=S)N1C1CCCCC1	27.4 µM
Cn1c(C(=O)Nc2ccc3c(c2)OCCO3)cc2sccc21	7.59 µM
COc1cccc(Nc2nc3ccc(OC)cc3s2)c1	11.2 µM
O=C(Nc1nc2ccccc2s1)C1CCCN1S(=O)(=O)c1ccc(Cl)cc1 (stereo not given)	49.3 µM
Cc1ccc(S(=O)(=O)n2ccc(OC(=O)c3cccs3)n2)cc1	8.32 µM
COc1cccc(C(=O)Nc2ccccc2)c1	24.4 µM
CC1CCN(c2ccc(-c3cccs3)nn2)CC1	8.39 µM
Cn1cccc1-c1nc2ccc(NC(=O)c3cccs3)cc2[nH]1	28.2 µM
O=C(N/N=C/C(Br)=C/c1ccccc1)c1cccs1	8.5 µM

SMILES	IC50
COc1ccc(-c2ccc(NC(=O)c3ccco3)cc2)nn1	10.5 µM
CC(C)(C)c1csc(NC(=O)c2ccc(Cl)s2)n1	24.6 µM
CCn1c(N2CCN(S(=O)(=O)c3ccc(OC)cc3)CC2)nc2ccccc21	58 µM
O=C(Nc1ccc(Nc2ccccc2)cc1)c1ccc(Cl)c([N+](=O)[O-])c1	10.8 µM
CC1(C)c2cc(Cl)ccc2-n2c1cc(O)c(-c1ccccc1)c2=O	11.5 µM
COc1ccc(C2=NNC(c3cccs3)=Nc3ccc(OC)cc32)cc1	9.29 µM
C/C=C/c1ccc(OCCOc2cc(C=O)ccc2OC)c(OC)c1	16.8 µM
O=Cc1cn(CCOc2ccccc2F)c2ccccc12	22.3 µM
COc1cc(C(=O)N/N=C/c2coc3ccc(Cl)cc3c2=O)ccc1O	6.59 µM
N=C1/C(=C\c2coc3ccccc3c2=O)C(=O)N=C2SC=CN12	7.35 µM
COc1cc2c(cc1OC)/C(=C/c1ccc(Cl)cc1)C(=O)OC2	50.9 µM
Cc1[nH][nH]c(=O)c1C(c1ccc(-c2ccc(F)cc2)o1)c1c(C)[nH][nH]c1=O	16.3 µM
O=C(N/N=C/c1ccc(Br)s1)c1c[nH]c2ccccc12	13.1 µM
Cc1nc2nc(-c3cccs3)[nH]c2cc1Br	14.9 µM
O=C(NCc1ccc2c(c1)OCO2)c1c(O)nc2sccn2c1=O	1.63 µM
O=C(Nc1cccc(NC(=O)c2cccs2)c1)c1ccc(Br)o1	15 µM
CC1c2[nH]c3ccccc3c2CCN1C(=O)Nc1ccccc1 (stereo not given)	14 µM
Cc1cc(Nc2ccccc2)nn1C(=O)c1ccccc1	11.3 µM
CC1(C)OC(=O)C(=Cc2ccc[nH]2)C(=O)O1	7.41 µM
CC1(C)CC(=O)C=C(c2cccc(Cl)c2O)C1	13.1 µM
COc1cccc(NC(=O)c2ccccc2)c1	3.42 µM
COc1ccc(CCN(/C=C2\Sc3ccccc3C2=O)C(C)=O)cc1OC	26.3 µM
O=C(N/N=C/c1coc2ccc(Cl)cc2c1=O)c1ccncc1	87.1 µM
CC[C@@]1(c2ccccc2OC)ON(c2ccccc2C(F)(F)F)C1=O	4.27 µM
COC(=O)c1ccc(NC(=O)c2nc(S(=O)(=O)Cc3cccc(C)c3)ncc2Cl)cc1	2.01 µM

SMILES	IC50
Cc1nc2ccccc2n1/N=C/c1ccc([N+](=O)[O-])s1	2.14 µM
O=C(Nc1ccc(-c2cn3ccccc3n2)cc1)c1cccs1	> 100 µM (inactive)
CN1C(=O)C(=Cc2ccccc2OS(=O)(=O)c2ccccc2)C(=O)N(C)C1=O	5.92 µM
Cc1nc2ccccc2c(=O)n1/N=C/c1cc(Br)ccc1O	10.8 µM
O=C(N/N=C/C(Br)=C/c1ccccc1)c1ccccc1F	15.5 µM
CC(C)(C)c1ccc(OCC(=O)NCc2ccco2)c(Br)c1	12.2 µM
C=CCn1c(SCc2cc(=O)n3ccsc3n2)nc2cc(Cl)ccc2c1=O	9.66 µM
O=C(Nc1ccc2oc(-c3ccccc3)nc2c1)c1cccs1	< 0.2 µM
O=C(Nc1ccc(-c2ccc(N3CCCCC3)nn2)cc1)c1ccco1	5.82 µM
c1ccc(-c2cc3ccccc3cn2)cc1	7.8 µM
COc1ccc(C(C[N+](=O)[O-])c2c(-c3ccccc3)cc3ccccn23)cc1 (stereo not given)	9.28 µM
O=C1c2ccccc2C(=O)N1c1nc(-c2cccs2)cs1	6.52 µM
Cc1ccccc1[C@@]1(C)ON(c2ccccc2C(F)(F)F)C1=O	3.74 µM
c1ccc(N=Nc2cn[nH]c2-c2ccco2)cc1	20.8 µM
Cc1nc2scc(C)n2c(=O)c1S(=O)(=O)Nc1ccc(OC(F)(F)F)cc1	49.3 µM
C/C(=N\Nc1nc2ccccc2s1)c1cccs1	17 µM
O=C(Nc1ccc(-c2cn3c(n2)SCC3)cc1)c1ccco1	38.3 µM
CCOc1nc2ccccc2cc1C=O	1.69 µM
O=C(Nc1cc(-c2ccccc2)[nH]n1)c1ccccc1	43.3 µM
COc1ccccc1C(=O)Nc1nnc(-c2ccc3c(c2)CCCC3)o1	14.7 µM
Nc1cc([N+](=O)[O-])cc2oc(-c3ccccc3)cc12	23.9 µM
O=C(NCCCc1ccccc1)c1c(O)nc2sccn2c1=O	4.09 µM
Cc1nc2scc(C)n2c(=O)c1S(=O)(=O)Nc1ccc(N2CCOCC2)cc1	> 100 µM (inactive)
N#C/C(=C\c1ccc(Cl)cc1)C(=O)Nc1cccnc1	24.3 µM
CCOC(=O)NNc1ccc2nonc2c1[N+](=O)[O-]	10.3 µM

SMILES	IC50
O=C(Nc1ccccc1N(C(=O)c1ccco1)S(=O)(=O)c1cccs1)c1ccco1	19.4 µM
CCc1cccc2c(C(=O)CCl)c[nH]c12	25.1 µM
COc1ccc(N2CCC(CNC(=S)Nc3ccc(C)cc3C)C2)cc1 (stereo not given)	18.1 µM
Cc1ccc2nc(N3C(=O)CNC3=S)sc2c1	21.1 µM
COc1ccc(NC(=O)C#Cc2ccccc2)cc1	6.8 µM
Cc1nn(CC(=O)Nc2nc3ccccc3s2)c(C)c1[N+](=O)[O-]	18.4 µM
CCCc1nc2c(c(=O)c3ccccc3n2C)c(=O)n1C1CCCCCC1	23.2 µM
O=C(Nc1nsc(-c2ccccc2)n1)c1cccs1	6.65 µM
C=CCNC(=O)c1ccc2c3n(nc2c1)-c1ccc(Cl)cc1CO3	8.34 µM
Cc1ccc2nc(N3CCN(C=O)CC3)nc(-c3ccccc3)c2c1	9.88 µM
O=Cc1cccnc1SCc1ccccc1	12.1 µM
CCN(CC)c1ccc(C(=O)Nc2cccc(F)c2)cc1	5.64 µM
CCc1ccc2oc(-c3cc(N)ccc3Cl)nc2c1	17 µM
COc1ccc(C(=O)N/N=C\c2coc3ccc(Cl)cc3c2=O)cc1	32.5 µM
Cc1ccc2nc(NC(=O)COC(=O)c3cccnc3)sc2c1	6.25 µM
COCCNC(=O)/C(C#N)=C/c1ccc(OCc2ccc(F)cc2)cc1	11.3 µM
O=C(/C=C\Nc1cccc(F)c1)c1cccs1	16.6 µM
O=C1OC(c2ccccc2)=N/C1=C\C=C\c1ccco1	> 100 µM (inactive)
N=c1c2c(-c3ccccc3)c(-c3ccccc3)n(Cc3ccco3)c2ncn1Cc1ccccc1	13.6 µM
CC1=CC(C)(C)N(C(=O)c2ccc(F)cc2)c2cc3c(cc21)OCO3	3.84 µM
O=C(Nc1ccc2oc(-c3ccccc3)nc2c1)c1cccnc1	10.8 µM
c1ccc2[nH]c(CSc3nc4ccccc4o3)nc2c1	18.6 µM
CC1(C)CC(n2c(NCCO)nc3c(c2=O)C2(CCCC2)Cc2ccccc2-3)CCO1 (stereo not given)	12.4 µM
Cc1ccc(NC(=O)c2ccc3c(c2)OCCO3)cc1C	4.16 µM
O=C1NC(=S)SC1=C1CCCCCC1	14.1 µM

SMILES	IC50
CCN(CC)S(=O)(=O)c1ccc(C(=O)OCn2nnc3ccccc3c2=O)cc1	> 100 µM (inactive)
Cc1csc2nc(O)c(C(=O)NCCCc3ccccc3)c(=O)n12	8.44 µM
Cc1ccc(C(=O)Nc2nc(C(C)(C)C)cs2)s1	20.9 µM
Oc1ccc(/C=N/Nc2cccc(Cl)n2)c(O)c1	14.9 µM
Cc1ccc(NC(=O)c2nc(S(=O)(=O)Cc3ccccc3C)ncc2Cl)cc1C	5.94 µM
Cc1ccc2occ(/C=N/NC(=O)c3ccccc3Br)c(=O)c2c1	17.3 µM
O=C(Nc1ccc(OC(F)(F)F)cc1)N1CCN(c2ccnc3cc(Cl)ccc23)CC1	10.2 µM
O=C(c1cccnc1)C1Cc2ccccc2C1=O (stereo not given)	27.8 µM
Cc1ccccc1C(=O)Oc1cccc2c(O)cccc12	13.8 µM
Cc1ccc(S(=O)(=O)N[C@@H](Cc2ccccc2)C(=O)CCl)cc1	0.64 µM
O=C(CCl)Nc1cccc(-c2cnc3ccccc3n2)c1	14.6 µM
Oc1ccc(Oc2ccc(Oc3ccc(O)cc3)cc2)cc1	30.4 µM
Cc1ccc(-c2nc(CNC(=O)c3cc(C)on3)cs2)cc1	19.8 µM
Cc1ccc(Nc2cc(C)c3ccc(O)cc3n2)cc1C	27.2 µM
O=C(N/N=C/c1cc(Br)cc(Br)c1O)c1cccc(N2CCCC2=O)c1	4.11 µM
O=[N+]([O-])c1ccc(N/N=C/c2cccc(O)c2)cc1	6.08 µM
Cc1ccc2nc(-c3ccc(N)cc3)sc2c1	17.4 µM
c1ccc(-c2nc(NCc3cccs3)c3ccccc3n2)cc1	14.3 µM
O=C(COc1ccccc1)N/N=C/c1ccc([N+](=O)[O-])o1	10.8 µM
COC(=O)c1c(-c2ccc(S(C)(=O)=O)cc2)sc2ccc(OC)cc12	11.4 µM
N#C/C(=C\c1ccc(Cl)cc1)C(=O)NC1CC1	9.67 µM
Cc1occc1C(=O)N/N=C/C(Br)=C/c1ccccc1	11.5 µM
CN=c1scc(-c2cccs2)n1/N=C/c1ccc(O)c(O)c1O	11 µM
Cc1csc2nc(O)c(C(=O)NCCC3=CCCCC3)c(=O)n12	3.43 µM
Cc1cnc(NC(=O)c2sc(Nc3ccccc3)nc2N)o1	28 µM
